Laboratory results published in patent US9023821B2, “Use of MicroRNA for treating diseases associated with a dysfunction of the cilia in multiciliated epithelial cells” (Centre National de la Recherche Scientifique, priority 2009, dated 2015).

Legend:
[1] = test system: human airway epithelial cells (HAECs); test: High-throughput sequencing (HTS) of miRNAs at four stages of differentiation of HAECs; conditions: for Modulation (ratio of the level of intensity of expression in log2 in two stages of differentiation) measured by high-throughput sequencing, D7 − D0 / Modulation (ratio of the level of intensity of expression in log2 in two stages of differentiation) measured by high-throughput sequencing, FC − D7 / Modulation (ratio of the level of intensity of expression in log2 in two stages of differentiation) measured by high-throughput sequencing, WD − D0 / Modulation (ratio of the level of intensity of expression in log2 in two stages of differentiation) measured by high-throughput sequencing, WD − FC / Level of intensity of expression in log2 measured by high-throughput sequencing, D0 / Level of intensity of expression in log2 measured by high-throughput sequencing, D7 / Level of intensity of expression in log2 measured by high-throughput sequencing, FC / Level of intensity of expression in log2 measured by high-throughput sequencing, WD: Table VI; for Level of intensity of expression in log2 At the differentiated stage (WD) measured in HTS: healthy human airway epithelial tissue; for Level of intensity of expression in log2 measured by high-throughput sequencing, D0: stage D0; for Level of intensity of expression in log2 measured by high-throughput sequencing, D7: stage D7; for Level of intensity of expression in log2 measured by high-throughput sequencing, FC: stage FC; for Level of intensity of expression in log2 At the differentiated stage (WD) measured in HTS / Level of intensity of expression in log2 measured by high-throughput sequencing, WD: stage WD
Procedure, shortened: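 ALI cultures sampled at day 0, day 7, first-cilia stage (~14 d) and full differentiation (~21 d). Trizol lysis, column purification retaining small RNAs. Adaptor ligation, RT at 42° C for 30 min, PCR, gel selection of ~105-150 base products.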

[2] = test system: human airway epithelial cells (HAECs); test: Agilent miRNA chips, miRNA expression at four stages of differentiation of HAECs; conditions: for Modulation (ratio of the level of intensity of expression in log2 in two stages of differentiation) measured with the Agilent chips, D7 − D0 / Modulation (ratio of the level of intensity of expression in log2 in two stages of differentiation) measured with the Agilent chips, FC − D7 / Modulation (ratio of the level of intensity of expression in log2 in two stages of differentiation) measured with the Agilent chips, WD − D0 / Modulation (ratio of the level of intensity of expression in log2 in two stages of differentiation) measured with the Agilent chips, WD − FC / Level of intensity of expression in log2 measured with the Agilent chips, D0 / Level of intensity of expression in log2 measured with the Agilent chips, D7 / Level of intensity of expression in log2 measured with the Agilent chips, FC / Level of intensity of expression in log2 measured with the Agilent chips, WD: Table VI; for Modulation (ratio of the level of intensity of expression in log2 at two stages of differentiation), FC − D7 / Modulation (ratio of the level of intensity of expression in log2 at two stages of differentiation), WD − FC: Agilent miRNA chips, Table V; for Level of intensity of expression in log2 measured with the Agilent chips, D0: stage D0; for Level of intensity of expression in log2 measured with the Agilent chips, D7: stage D7; for Level of intensity of expression in log2 measured with the Agilent chips, FC: stage FC; for Level of intensity of expression in log2 measured with the Agilent chips, WD: stage WD
Procedure, shortened: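 Expression read from hybridization signals on Human miRNA Microarray v2 arrays spanning all miRBase v.12.0 human miRNAs plus 89 viral ones. Samples are RNA from the same patients profiled by sequencing, labelled with the standard kit.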

[3] = test system: basal cells and pyramidal cells of the airway epithelium; test: miRNA expression in sorted basal cells versus pyramidal cells (ciliated + secretory), HTS and Agilent chips; parameters: species or system human; conditions: for Modulation of expression of the miRNAs in pyramidal cells (323(−)) relative to basal cells 323(+): HTS and Agilent chips; for Intensity of the level of expression in log2 in pyramidal cells (323(−)): pyramidal cells (ciliated + secretory)
Procedure, shortened: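 FACS on CD151 and tissue factor: double-positive = basal, double-negative = ciliated + mucus cells; DAPI, doublets, aggregates excluded; sort at 5000 events/s. Purity checked by cytometry/immunocytochemistry. miRNA by Agilent array or HTS on total RNA. Source: nasal polyps/conchae, 3 donors.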

hsa-miR-100: human miRNA, SEQ ID No. 1 (AACCCGUAGAUCCGAACUUGUG; expressed or natural sequence; listed as Homo sapiens)
Modulation (ratio of the level of intensity of expression in log2 in two stages of differentiation) measured by high-throughput sequencing, D7 − D0 [1]: −1.05 log2 | Modulation (ratio of the level of intensity of expression in log2 in two stages of differentiation) measured by high-throughput sequencing, FC − D7 [1]: −2.36 log2 | Modulation (ratio of the level of intensity of expression in log2 in two stages of differentiation) measured by high-throughput sequencing, WD − D0 [1]: −1.72 log2 | Modulation (ratio of the level of intensity of expression in log2 in two stages of differentiation) measured by high-throughput sequencing, WD − FC [1]: 1.69 log2 | Level of intensity of expression in log2 At the differentiated stage (WD) measured in HTS [1]: 9.00 log2 | Level of intensity of expression in log2 measured by high-throughput sequencing, D0 [1]: 10.72 log2 | Level of intensity of expression in log2 measured by high-throughput sequencing, D7 [1]: 9.67 log2 | Level of intensity of expression in log2 measured by high-throughput sequencing, FC [1]: 7.32 log2 | Level of intensity of expression in log2 measured by high-throughput sequencing, WD [1]: 9.00 log2 | Modulation (ratio of the level of intensity of expression in log2 in two stages of differentiation) measured with the Agilent chips, D7 − D0 [2]: −0.46 log2 | Modulation (ratio of the level of intensity of expression in log2 at two stages of differentiation), FC − D7 [2]: −1.25 log2 | Modulation (ratio of the level of intensity of expression in log2 in two stages of differentiation) measured with the Agilent chips, FC − D7 [2]: −1.25 log2 | Modulation (ratio of the level of intensity of expression in log2 in two stages of differentiation) measured with the Agilent chips, WD − D0 [2]: −1.49 log2 | Modulation (ratio of the level of intensity of expression in log2 at two stages of differentiation), WD − FC [2]: 0.22 log2 | Modulation (ratio of the level of intensity of expression in log2 in two stages of differentiation) measured with the Agilent chips, WD − FC [2]: 0.22 log2 | Level of intensity of expression in log2 measured with the Agilent chips, D0 [2]: 8.00 log2 | Level of intensity of expression in log2 measured with the Agilent chips, D7 [2]: 7.55 log2 | Level of intensity of expression in log2 measured with the Agilent chips, FC [2]: 6.29 log2 | Level of intensity of expression in log2 measured with the Agilent chips, WD [2]: 6.52 log2 | Modulation of expression of the miRNAs in pyramidal cells (323(−)) relative to basal cells 323(+) [3]: 1.62 | Intensity of the level of expression in log2 in basal cells (323(+)) [3]: 3.28 log2 | Intensity of the level of expression in log2 in pyramidal cells (323(−)) [3]: 4.90 log2

hsa-miR-106b: human miRNA, SEQ ID No. 2 (UAAAGUGCUGACAGUGCAGAU; expressed or natural sequence; listed as Homo sapiens)
Modulation (ratio of the level of intensity of expression in log2 in two stages of differentiation) measured by high-throughput sequencing, D7 − D0 [1]: 1.33 log2 | Modulation (ratio of the level of intensity of expression in log2 in two stages of differentiation) measured by high-throughput sequencing, FC − D7 [1]: −0.28 log2 | Modulation (ratio of the level of intensity of expression in log2 in two stages of differentiation) measured by high-throughput sequencing, WD − D0 [1]: 0.96 log2 | Modulation (ratio of the level of intensity of expression in log2 in two stages of differentiation) measured by high-throughput sequencing, WD − FC [1]: −0.09 log2 | Level of intensity of expression in log2 At the differentiated stage (WD) measured in HTS [1]: 5.39 log2 | Level of intensity of expression in log2 measured by high-throughput sequencing, D0 [1]: 4.43 log2 | Level of intensity of expression in log2 measured by high-throughput sequencing, D7 [1]: 5.76 log2 | Level of intensity of expression in log2 measured by high-throughput sequencing, FC [1]: 5.48 log2 | Level of intensity of expression in log2 measured by high-throughput sequencing, WD [1]: 5.39 log2 | Modulation (ratio of the level of intensity of expression in log2 in two stages of differentiation) measured with the Agilent chips, D7 − D0 [2]: 1.39 log2 | Modulation (ratio of the level of intensity of expression in log2 at two stages of differentiation), FC − D7 [2]: −0.53 log2 | Modulation (ratio of the level of intensity of expression in log2 in two stages of differentiation) measured with the Agilent chips, FC − D7 [2]: −0.53 log2 | Modulation (ratio of the level of intensity of expression in log2 in two stages of differentiation) measured with the Agilent chips, WD − D0 [2]: 0.69 log2 | Modulation (ratio of the level of intensity of expression in log2 at two stages of differentiation), WD − FC [2]: −0.18 log2 | Modulation (ratio of the level of intensity of expression in log2 in two stages of differentiation) measured with the Agilent chips, WD − FC [2]: −0.18 log2 | Level of intensity of expression in log2 measured with the Agilent chips, D0 [2]: 8.08 log2 | Level of intensity of expression in log2 measured with the Agilent chips, D7 [2]: 9.47 log2 | Level of intensity of expression in log2 measured with the Agilent chips, FC [2]: 8.94 log2 | Level of intensity of expression in log2 measured with the Agilent chips, WD [2]: 8.77 log2 | Modulation of expression of the miRNAs in pyramidal cells (323(−)) relative to basal cells 323(+) [3]: −2.05 | Intensity of the level of expression in log2 in basal cells (323(+)) [3]: 7.22 log2 | Intensity of the level of expression in log2 in pyramidal cells (323(−)) [3]: 5.16 log2
